SMILES strings stand for the structures.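 Dose response: 5 concentrations. Exposure: 48 h. Format: 96-well plates. Endpoint: linear interpolation; highest concentration if not reached. GI50 is the concentration that inhibits growth by half. TGI denotes the concentration required for complete inhibition of growth.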

What all share (test): NCI anticancer screen, dose series, 48 h
Assay [1] concerns SF-295 CNS.
The test system of assay [2] is MCF7 breast.
The subject of assay [3] is HS 578T breast.
The test system of assay [4] is SNB-75 CNS.
For assay [5], the system named is KM12 colon.
The subject of assay [6] is SW-620 colon.
Assay [7] relates to 786-0 renal.
The test system of assay [8] is IGROV1 ovarian.
Assay [9] deals with M14 melanoma.
For assay [10], the system named is ACHN renal.

Regarding `COc1ccccc1Nc1nc(-c2cc3cccc(C(F)(F)F)c3oc2=O)cs1`, the GI50 is 0.0353 µM in assay [1]; 0.0574 µM in [2]; 0.277 µM in [3]; 0.0305 µM in [4]; 0.0723 µM in assay [5]; 0.144 µM in assay [6]. Besides, the GI50 in assay [7] is 0.218 µM; in assay [8] it was 0.257 µM; in [9], 0.111 µM; in [10], 0.106 µM. For the same compound, the TGI in assay [1] is 24.2 µM; in assay [2] it was over 100 µM; in assay [3] it was over 81.2 µM; in assay [4], 16.7 µM; in [5] it was 22.3 µM; in assay [6], over 100 µM. The values for the TGI in assay [7], in assay [8] and in assay [10] were over 42.9 µM, over 53 µM and over 100 µM, respectively.
Regarding `CNCCNc1nc2ccccc2c2c(=O)c3cccc(OC)c3sc12`, the GI50 in [1] is 1.55 µM; in assay [2] it was 1.17 µM; in assay [3] it was 1.57 µM; in assay [4] it was 1.1 µM; in assay [5], 1.62 µM; in assay [6] it was 0.575 µM. The GI50 is 1.76 µM in assay [7], 1 µM in assay [8], 1.59 µM in [9] and 1.01 µM in assay [10]. Also, the TGI stood at 3.13 µM in assay [1]; 2.59 µM in assay [2]; 3.97 µM in assay [3]; 2.33 µM in [4]; 3.11 µM in [5]; 2.11 µM in assay [6]. Further, the TGI in [7] came out at 3.35 µM; in assay [8], 2.44 µM; in assay [9], 3.01 µM; in assay [10], 2.3 µM.
With `CC(C)[C@]12O[C@H]1[C@@H]1O[C@]13[C@]1(O[C@H]1C[C@H]1c4c(C(=O)c5ccccc5)oc(OC(=O)c5ccccc5)c4CC[C@@]13C)[C@@H]2O`, the GI50 in assay [1] was 0.0653 µM; in assay [2], 0.0139 µM; in [3], 0.0303 µM; in [4] it was 0.0224 µM; in assay [5], 0.226 µM; in assay [6] it was 0.0179 µM. The GI50 in assay [7] was 0.0352 µM; in assay [8], 0.028 µM; in assay [9], 0.0236 µM; in assay [10] it was 0.0174 µM. Moreover, the TGI came out at 2.75 µM in [1]; 19.9 µM in [2]; 0.996 µM in assay [3]; 0.17 µM in [4]; 3.78 µM in assay [5]; 3.89 µM in assay [6]. In addition, the TGI turned out to be 5.22 µM in assay [7], 9.74 µM in [8], 0.0688 µM in [9] and 20.7 µM in [10].
Take `O=C1/C(=C/c2ccc(O)cc2)CCC1CNc1ccc(Cl)cc1` (centres undefined): the TGI is 16.7 µM in assay [1]; 6.82 µM in assay [2]; over 100 µM in assay [3]; 29.7 µM in [4]; 8.45 µM in assay [5]; 3.03 µM in [6]. The TGI in assay [7] stood at 4.58 µM; in assay [8], 15.1 µM; in assay [9] it was 3.57 µM; in [10], 11.6 µM.
Consider `CCN1C(=O)N(c2c(F)c(OC)cc(OC)c2F)Cc2cnc3[nH]c(CN4CCOCC4)cc3c21`, for which the GI50 was 3.83 µM in assay [1]; 8.04 µM in assay [2]; 1.82 µM in [3]; 1.13 µM in assay [4]; 5.08 µM in assay [5]; 3.51 µM in assay [6]. Besides, the GI50 is 2.84 µM in [7], 1.44 µM in assay [8], 1.32 µM in [9] and 1.02 µM in assay [10]. Moreover, the TGI was over 100 µM in assay [1]; over 100 µM in assay [2]; over 100 µM in assay [3]; 26.5 µM in assay [4]; over 100 µM in assay [5]; over 100 µM in assay [6]. For the same compound, the TGI in [7] was 30.1 µM; in assay [8], over 100 µM; in assay [9], over 100 µM; in assay [10], 14.1 µM.
Turning to `COc1ccc(-n2c(N)c(C(=O)NCCN3CCOCC3)c3nc4ccccc4nc32)cc1OC`, the GI50 in [2] was 4.13 µM; in assay [3], 9.27 µM; in [4] it was 38.7 µM; in assay [5], 8.26 µM; in assay [6], 4.07 µM; in [7], 2.02 µM. In addition, the figures for the GI50 in assay [8], in assay [9] and in assay [10] were 4.92 µM, 15.1 µM and 4.16 µM, respectively. Also, the TGI in assay [2] was over 100 µM; in [3], over 100 µM; in assay [4], over 100 µM; in assay [5], over 100 µM; in assay [6], over 100 µM; in assay [7], 79.2 µM. Moreover, the results for the TGI in [8], in assay [9] and in assay [10] were 67.4 µM, over 100 µM and over 100 µM, respectively.
In the case of `Cn1cccc1-c1cc(-c2ccc(Br)cc2)nc(N)c1C#N`, the GI50 in assay [1] is over 100 µM; in assay [2] it was over 100 µM; in assay [3], over 100 µM; in assay [4] it was 22.2 µM; in [5], over 100 µM; in assay [6], over 100 µM. Moreover, the GI50 in [7] was over 100 µM; in [8], 70 µM; in assay [10], over 100 µM. Moreover, the TGI in [1] was over 100 µM; in assay [2], over 100 µM; in assay [3], over 100 µM; in assay [4], 84.3 µM; in [5], over 100 µM; in assay [6], over 100 µM. The TGI in [7], in assay [8] and in assay [10] was over 100 µM throughout.
For `CCOC(=O)C(=Cc1ccccc1Br)C(=O)OCC`, the TGI in assay [1] is 8.88 µM; in assay [2], over 100 µM; in [3], 30.9 µM; in assay [4], 75.5 µM; in assay [5], 4.06 µM; in [7], over 100 µM. Besides, the TGI in assay [8] was 4.62 µM; in assay [9], 2.48 µM; in assay [10], 6.01 µM.

These data come from PubChem BioAssay (NCI).
